Columns and labels:
[1] = Inhibition of Saccharomyces cerevisiae alpha-glucosidase using pNPG as substrate assessed as release of p-nitrophenol preincubated for 18 mins followed by substrate addition and measured after 30 mins by colorimetric method
BV-2 [2] = assay: Antineuroinflammatory activity against mouse BV-2 cells assessed as inhibition of LPS-induced NO production by Griess assay; assay type: functional, cell-based
BV-2 [3] = assay: Cytotoxicity against mouse BV2 cells assessed as reduction in cell viability by MTT assay; assay type: toxicity, cell-based

| Structure (SMILES) | IC50 [1] [µM] | IC50 (BV-2 [2]) [µM] | Activity (BV-2 [3]) |
| --- | --- | --- | --- |
| C=C1[C@@H]2CC[C@H]3[C@]4(C)C[C@H](O[C@@H]5O[C@H](CO)[C@@H](OC(C)=O)[C@H](O[C@@H]6OC[C@H](OC(C)=O)[C@H](O)[C@H]6O)[C@H]5OC(=O)CC(C)C)C[C@@H](C(=O)O)[C@H]4CC[C@]3(C2)[C@H]1O | 537 |  |  |
| C[C@H]1O[C@H](O[C@H]2[C@H](O)[C@@H](O)[C@@H](O[C@H]3[C@H](O)[C@@H](O)C(O)O[C@@H]3CO)O[C@@H]2CO)[C@H](O)[C@@H](O)[C@@H]1N[C@H]1C=C(CO)[C@@H](O)[C@H](O)[C@H]1O (some centres not stated) [ACARBOSE] | 388 |  |  |
| C=C1[C@@H]2CC[C@H]3[C@]4(C)C[C@H](O[C@@H]5O[C@H](COC(C)=O)[C@@H](OC(C)=O)[C@H](O[C@@H]6OC[C@H](O)[C@H](O)[C@H]6O)[C@H]5OC(=O)CC(C)C)C[C@@H](C(=O)O)[C@H]4CC[C@]3(C2)[C@H]1O |  | 15.6 | Non-Toxic |
| C=C1[C@@H]2CC[C@H]3[C@]4(C)C[C@H](O[C@@H]5O[C@H](CO)[C@@H](O)[C@H](OC(C)=O)[C@H]5OC(=O)CC(C)C)CC(C(=O)O)(C(=O)O)[C@H]4CC[C@]3(C2)[C@H]1O | 32.8 |  |  |
| CNC(=N)NCCC[C@H](N)C(=O)O [TILARGININE] |  | 31.8 |  |
| C=C1[C@@H]2CC[C@H]3[C@]4(C)C[C@H](O[C@@H]5O[C@H](CO)[C@@H](O)[C@H](O[C@@H]6OC[C@H](OC(C)=O)[C@H](O)[C@H]6OC(C)=O)[C@H]5OC(=O)CC(C)C)C[C@@H](C(=O)O)[C@H]4CC[C@]3(C2)[C@H]1O | 373 |  |  |
